Values of other authors in patent publication US20130142849A1 (LUPIN LIMITED, priority 2010, published 2013).
Read-outs that look alike come from different tables or passages of the source.

Q: With `CCCCc1oc2ccc(NS(C)(=O)=O)cc2c1C(=O)c1ccc(OCCCN(CCCC)CCCC)cc1.Cl` [Dronedarone, N-{2-butyl-3-[4-(3-dibutylaminopropoxy)benzoyl]benzofuran-5-yl}methane sulfonamide, hydrochloride] as the compound, how does the absolute oral bioavailability (administered with a high fat meal) read?
A: The absolute oral bioavailability was “approx. 15%”.

Q: And the absolute oral bioavailability (fasting)?
A: Its absolute oral bioavailability is 4%.
